From US7507792B2, “MDA-7 proteins and methods of use thereof” (The Trustees of Columbia University In The City of New York, priority 1993, dated 2009)

Test system: p21 protein
Assay: Immunoprecipitation of p21 in H0-1 cells
Type: cell-based, human
Conditions: IFN-β 2000 units/ml, MEZ 10 ng/ml
Method: Immunoprecipitation analyses were performed as described previously (Duigou et al., 1991; Su et al., 1993; Jiang et al., 1994b). […] Cultures were starved of methionine for 1 h at 37° C. in methionine-free medium, cells were concentrated by pelleting and labeled for 1 h (p53) or 4 h (p21 and Actin) at 37° in 1 ml of the same medium with 100 μCi of [^35S] (NEN; Express ^35S). After labeling, the cells were washed twice with ice-cold phosphate-buffered saline and lysed for 1 h on ice by the addition of RIPC (20 mM Tris-base, pH 7.5, 500 mM NaCl, 0.05% Nonidet P-40, 100 μg/ml phenylmethylsulfonyl fluoride and 0.02% sodium azide). The lysate was clarified by centrifugation in an Eppendorf microfuge at 10,000×g for 10 min at 4° C. H0-1 samples containing 4×10^6 counts were incubated with 2 μg of p53 monoclonal antibody (Ab1; PAb421) (Oncogene Sciences), WAF1/CIP1 (C-19) (Santa Cruz Biotechnology) (or MDA-6 peptide-derived) rabbit polyclonal IgG or actin monoclonal antibody (Oncogene Sciences) with rocking at 4° C. for 24 h. Labeled cell lysates were also prepared from F0-1, L0-1, SH-1, WM239, FM516-SV, SW480, MeWo, human skin fibroblasts and Saos-2 cells. Samples containing 4×10^6 counts were incubated with 2 μg of the p53 monoclonal antibody Ab1 (PAb421) or Ab3 (PAb240) (Oncogene Sciences). […]

C=C(C)[C@@]12O[C@@]3(c4ccccc4)O[C@@H]1[C@@H]1[C@@H]4O[C@]4(CO)[C@@H](O)[C@]4(O)C(=O)C(C)=C[C@H]4[C@@]1(O3)[C@H](C)[C@H]2OC(=O)/C=C/C=C/c1ccccc1 [MEZ, mezerein]
p21 mRNA and protein (24 h): induced
p21 protein level (over 48, 72, 96 h): increases
